How the values were obtained:
[1] = test system: SAH model; assay: Cerebral blood flow by laser speckle perfusion imaging after SAH; format: in vivo; conditions: mice, 48 hours after SAH; 5 mg/kg repetitive dosing following SAH; FIG. 3
Experimental: (§1) Studies were conducted wherein repetitive dosing on days 1, 2, and 3 following SAH occurred with 5 mg/kg of the p-STAT3 inhibitor. […] The STAT inhibitor used in these studies was LLL12B.
The SAH model utilized modified autologous blood injection to basal cisterns adjacent to right anterior circulation. [Dodd W S, Noda I, Martinez M, Hosaka K, Hoh BL. NLRP3 inhibition attenuates early brain injury and delayed cerebral vasospasm after subarachnoid hemorrhage. J Neuroinflammation. 2021; 18 (1): 163.]. Briefly, mice we anesthetized with 10 mg/kg xylazine and 100 mg/kg ketamine prior to shaving/cleaning the scalp. The tail was prepped, shaved, and cleaned. The mouse's head was fixed to the stereotaxic frame and body temperature maintained at 37° C. using a heating pad. […] The mouse's respiratory rate was closely monitored. […]
Four mice per group were utilized. Cerebral blood flow was measured with a laser speckle perfusion imager at 48 hours after SAH. […] Sufficient readings were able to be achieved without bone flap removal. […] Average perfusion per animal was documented and an imaging voxel with a calculated mean of 9.7 was used to measure bilateral MCA territory perfusion. A ratio of right to left MCA perfusion was calculated for each animal to allow reliable comparisons between groups and to control for variance in baseline blood pressure differences. […]

[2] = test system: SAH model; assay: Immunohistochemistry of brain slices after SAH (p-STAT3, Arg1, Cox2, iNOS, TLR-4); format: in vivo; conditions: mice, following SAH; 5 mg/kg on days 1, 2, and 3 following SAH
Experimental: as §1
The SAH model utilized modified autologous blood injection to basal cisterns adjacent to right anterior circulation. [Dodd W S, Noda I, Martinez M, Hosaka K, Hoh BL. NLRP3 inhibition attenuates early brain injury and delayed cerebral vasospasm after subarachnoid hemorrhage. J Neuroinflammation. 2021; 18 (1): 163.]. Briefly, mice we anesthetized with 10 mg/kg xylazine and 100 mg/kg ketamine prior to shaving/cleaning the scalp. The tail was prepped, shaved, and cleaned. The mouse's head was fixed to the stereotaxic frame and body temperature maintained at 37° C. using a heating pad. The scalp was incised along the sagittal suture from bregma to the nasal bone. The skin was reflected and held in place by retraction. The burr hole was positioned 5.0 mm rostral to bregma and 0.5 mm right of midline. Next, 150 μL of arterial blood was drawn from the tail artery. 50 μL of blood was drawn up into a Hamilton syringe. The syringe needle was passed at a 30° caudal angle until it reached the skull base. The syringe was left in place and blood was manually injected at a rate of 10 μL/min. The mouse's respiratory rate was closely monitored. […]

SMILES: CN(C)C(=O)Oc1cccc2c1C(=O)c1cccc(S(N)(=O)=O)c1C2=O [LLL12B]
- cerebral blood flow [1]: protective benefit for cerebral blood flow showing decreased risk for ischemia
- systemic neuroinflammation (immunochemistry) [2]: reduces systemic neuroinflammation

From patent US20260283999A1, “STAT3 INHIBITOR TO TREAT SU[…]” (UNIVERSITY OF FLORIDA RESEARCH FOUNDATION, INCORPORATED, priority 2022, published 2026)
